{"source": "patent US20060069132A1", "about": "“Azolecarboxamide herbicides” (priority 2004, published 2006)", "key": {"large crabgrass [1]": {"test_system": "large crabgrass", "assay": "Test C pre-/postemergence herbicide test", "format": "in vivo, Digitaria sanguinalis", "in_short": "(§1)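 Visual ratings on a 0–100 scale (100 = complete control) made versus untreated controls after 12 to 14 greenhouse days. Test chemicals, formulated in surfactant-containing non-phytotoxic solvent, applied preemergence to planted seeds or postemergence to 1- to 4-leaf plants (2 to 18 cm).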"}, "johnsongrass": {"test_system": "johnsongrass", "assay": "Test C pre-/postemergence herbicide test", "format": "in vivo, Sorghum halepense", "in_short": "as §1"}, "redroot pigweed": {"test_system": "redroot pigweed", "assay": "Test A pre-/postemergence herbicide test", "format": "in vivo, Amaranthus retroflexus", "in_short": "(§2)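 Visual injury scores on a 0–100 scale (100 = complete control) taken about ten days post-treatment in greenhouse against untreated controls; dash means no result. Treatments: preemergence soil spray and postemergence spray to runoff on one- to two-leaf plants 2 to 10 cm tall, surfactant-containing formulation.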"}, "rice": {"test_system": "rice", "assay": "Test B pre-/postemergence herbicide test", "format": "in vivo, Oryza sativa", "conditions": "preemergence", "in_short": "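Formulation: non-phytotoxic solvent mix with surfactant. Timing: preemergence on seed and postemergence on 2–18 cm plants, applied concurrently. Readout after 13–15 d greenhouse: visual 0–100 control rating against controls.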"}, "corn": {"test_system": "corn", "assay": "Test C pre-/postemergence herbicide test", "format": "in vivo, Zea mays", "in_short": "as §1"}, "eastern black nightshade": {"test_system": "eastern black nightshade", "assay": "Test C pre-/postemergence herbicide test", "format": "in vivo, Solanum ptycanthum", "in_short": "as §1"}, "large crabgrass [2]": {"test_system": "large crabgrass", "assay": "Test A pre-/postemergence herbicide test", "format": "in vivo, Digitaria sanguinalis", "in_short": "as §2"}, "[3]": {"conditions": "125 g ai/ha, scale 0 (no effect) to 100 (complete control), visual, 12 to 14 days, preemergence"}, "[4]": {"conditions": "250 g ai/ha, scale 0 to 100 (0 no effect, 100 complete control), visual, 12 to 14 days, preemergence"}, "[5]": {"conditions": "Preemergence, 500 g ai/ha, scale 0 to 100, 0 no effect, 100 complete control"}, "[6]": {"conditions": "Postemergence, 500 g ai/ha, 0 to 100 scale, 0 no effect, 100 complete control"}, "[7]": {"conditions": "Postemergence, 2000 g ai/ha, 0 to 100 scale, 0 no effect, 100 complete control"}, "[8]": {"conditions": "Preemergence, 500 g ai/ha, visual rating, 0 to 100 scale (0 no effect, 100 complete control)"}, "[9]": {"conditions": "Preemergence, 2000 g ai/ha, 0 to 100 scale, 0 no effect, 100 complete control"}, "[10]": {"conditions": "62 g ai/ha, preemergence, scale 0 to 100"}, "[11]": {"conditions": "250 g ai/ha, scale 0-100, preemergence"}, "[12]": {"conditions": "500 g ai/ha, scale 0 to 100 (0 no effect, 100 complete control), visual, 12 to 14 days, preemergence"}, "[13]": {"conditions": "Preemergence, 2000 g ai/ha, visual rating, 0 to 100 scale (0 no effect, 100 complete control)"}, "[14]": {"conditions": "preemergence, 500 g ai/ha, visual injury, 0 to 100 scale (0 no effect, 100 complete control)"}}}
{"smiles": "CCn1nc(C(C)(C)C)cc1C(=O)Nc1cccc(C(=O)NCC(C)C)c1", "note": "[Compound 61]", "values": [{"measurement": "Plant response rating (0 = no effect, 100 = complete control), Crabgrass, Large", "setting": "large crabgrass [1]; 62 g ai/ha, preemergence", "result": 50}, {"measurement": "Plant response rating, Crabgrass, Large", "setting": "large crabgrass [1]; [3]", "result": 75}, {"measurement": "Plant response rating, Crabgrass, Large", "setting": "large crabgrass [1]; [4]", "result": 100}, {"measurement": "Crabgrass, Large plant response rating", "setting": "large crabgrass [1]; [5]", "result": 100}, {"measurement": "Plant response rating (0 = no effect, 100 = complete control), Johnsongrass", "setting": "johnsongrass; 62 g ai/ha, preemergence", "result": 10}, {"measurement": "Plant response rating, Johnsongrass", "setting": "johnsongrass; [3]", "result": 30}, {"measurement": "Plant response rating, Johnsongrass", "setting": "johnsongrass; [4]", "result": 50}, {"measurement": "Johnsongrass plant response rating", "setting": "johnsongrass; [5]", "result": 60}, {"measurement": "Plant response rating, Pigweed", "setting": "redroot pigweed; [6]", "result": 85}, {"measurement": "Plant response rating, Pigweed", "setting": "redroot pigweed; [7]", "result": 95}, {"measurement": "Pigweed plant response rating", "setting": "redroot pigweed; [8]", "result": 95}, {"measurement": "Pigweed plant response rating", "setting": "redroot pigweed; [9]", "result": 65}, {"measurement": "Plant response rating, Rice", "setting": "rice; 125 g ai/ha, 0 to 100 scale, 0 is no effect, 100 is complete control", "result": 0}, {"measurement": "Plant response rating (0 = no effect, 100 = complete control), Corn", "setting": "corn; 62 g ai/ha, preemergence", "result": 0}, {"measurement": "Plant response rating, Corn", "setting": "corn; [3]", "result": 0}, {"measurement": "Plant response rating, Corn", "setting": "corn; [4]", "result": 0}, {"measurement": "Corn plant response rating", "setting": "corn; [5]", "result": 0}, {"measurement": "Plant response rating (0 = no effect, 100 = complete control), Nightshade", "setting": "eastern black nightshade; 62 g ai/ha, preemergence", "result": 0}, {"measurement": "Plant response rating, Nightshade", "setting": "eastern black nightshade; [3]", "result": 20}, {"measurement": "Plant response rating, Nightshade", "setting": "eastern black nightshade; [4]", "result": 40}, {"measurement": "Nightshade plant response rating", "setting": "eastern black nightshade; [5]", "result": 90}, {"measurement": "Plant response rating, Crabgrass, Large", "setting": "large crabgrass [2]; [6]", "result": 30}, {"measurement": "Plant response rating, Crabgrass, Large", "setting": "large crabgrass [2]; [7]", "result": 45}, {"measurement": "Crabgrass, Large plant response rating", "setting": "large crabgrass [2]; [8]", "result": 75}, {"measurement": "Crabgrass, Large plant response rating", "setting": "large crabgrass [2]; [9]", "result": 90}]}
{"smiles": "CCN(CC)C(=O)c1cccc(NC(=O)c2cc(C(C)(C)C)nn2C)n1", "note": "[Compound 314]", "values": [{"measurement": "Plant response rating, Crabgrass, Large", "setting": "large crabgrass [1]; [10]", "result": 0}, {"measurement": "Plant response rating, Crabgrass, Large", "setting": "large crabgrass [1]; [3]", "result": 0}, {"measurement": "Plant response rating, Crabgrass, Large", "setting": "large crabgrass [1]; [11]", "result": 40}, {"measurement": "Plant response rating, Crabgrass, Large", "setting": "large crabgrass [1]; [12]", "result": 60}, {"measurement": "Plant response rating, Johnsongrass", "setting": "johnsongrass; [10]", "result": 0}, {"measurement": "Plant response rating, Johnsongrass", "setting": "johnsongrass; [3]", "result": 20}, {"measurement": "Plant response rating, Johnsongrass", "setting": "johnsongrass; [11]", "result": 70}, {"measurement": "Plant response rating, Johnsongrass", "setting": "johnsongrass; [12]", "result": 90}, {"measurement": "Pigweed plant response rating", "setting": "redroot pigweed; [6]", "result": 80}, {"measurement": "Plant response rating, Pigweed", "setting": "redroot pigweed; [7]", "result": 100}, {"measurement": "Pigweed plant response rating", "setting": "redroot pigweed; [13]", "result": 90}, {"measurement": "Pigweed plant response rating", "setting": "redroot pigweed; [14]", "result": 80}, {"measurement": "Plant response rating (0 to 100 scale), Rice", "setting": "rice; 125 g ai/ha, 0 is no effect, 100 is complete control", "result": 0}, {"measurement": "Plant response rating, Rice", "setting": "rice; 500 g ai/ha, visual rating, 0 = no effect, 100 = complete control", "result": 10}, {"measurement": "Plant response rating, Corn", "setting": "corn; [10]", "result": 0}, {"measurement": "Plant response rating, Corn", "setting": "corn; [3]", "result": 0}, {"measurement": "Plant response rating, Corn", "setting": "corn; [11]", "result": 0}, {"measurement": "Plant response rating, Corn", "setting": "corn; [12]", "result": 0}, {"measurement": "Plant response rating, Nightshade", "setting": "eastern black nightshade; [10]", "result": 60}, {"measurement": "Plant response rating, Nightshade", "setting": "eastern black nightshade; [3]", "result": 85}, {"measurement": "Plant response rating, Nightshade", "setting": "eastern black nightshade; [11]", "result": 90}, {"measurement": "Plant response rating, Nightshade", "setting": "eastern black nightshade; [12]", "result": 100}, {"measurement": "Crabgrass, Large plant response rating", "setting": "large crabgrass [2]; [6]", "result": 20}, {"measurement": "Plant response rating, Crabgrass, Large", "setting": "large crabgrass [2]; [7]", "result": 60}, {"measurement": "Crabgrass, Large plant response rating", "setting": "large crabgrass [2]; [13]", "result": 90}, {"measurement": "Crabgrass, Large plant response rating", "setting": "large crabgrass [2]; [14]", "result": 55}]}
